Results published in patent US20210137883A1, “ANTI-NEOPLASTIC COMPOUNDS AND METHODS TARGETING QSOX1” (ARIZONA BOARD OF REGENTS ON BEHALF OF ARIZONA STATE …, priority 2015, published 2021).
“Also recorded” adds a separate entry of the source.

Experiments:
[1] = test system: MCF-10A breast cancer cell lines containing mutant p53; assay: Boyden chamber invasion through Matrigel, MCF-10A p53 breast cell lines; assay type: cell-based; settings: FIG. 13
Excerpt: FIG. 13. […] P530E is MCF-10A non-malignant breast cell line containing wild type (non-mutated) p53. R248W, R273C and Y220C are three different p53 mutants expressed in MCF-10A breast cells.

786-O = assay: Detection of laminin-α4 deposition with anti-LAMA4 antibody in kidney cancer cells; assay type: cell-based; settings: 15 uM SBI-183; 786-O kidney cancer cells; FIG. 12
Protocol: FIG. 12. 786-O Detection of laminin-α4 using anti-LAMA4 antibody in kidney cancer cells after incubation with 15uM SBI-183. […] Secondary alone indicates the goat anti-mouse antibody that was used to detect binding of anti-LAMA4.

[2] = test system: MIAPaCa2 pancreatic tumor cells; assay: Boyden chamber invasion through Matrigel, MIAPaCa2; assay type: cell-based; settings: FIG. 13
myeloma cell lines = assay: MTT assay on myeloma cell lines; assay type: cell-based; settings: 2-fold serial dilutions, at higher doses, FIG. 15
Protocol: FIG. 15. MTT assay results from exposure of myeloma cell lines to SBI-183. Assay conditions: 25,000 cells per well were plated in a 96-well flat-bottom plate. 2-fold serial dilutions of SBI-183 were added to each well. % cell viability was calculated using the following formula: cmpd+cells/vehicle+cells*100%.

786-O cells = assay: Boyden chamber invasion through Matrigel, 786-O kidney cancer cells; assay type: cell-based; settings: dose-dependent; FIG. 11
Excerpt: FIG. 11. Effect of Compound SBI-0143183 on Kidney cancer invasion through Matrigel (786-0).

[3] = test system: UOK117 renal cell carcinoma xenografts; assay: UOK117 renal cell carcinoma xenografts in nude mice; assay type: in vivo; settings: oral lavage 20 mg/kg/day from day 7, compared to vehicle-treated and untreated mice, FIG. 14
Protocol: FIG. 14. […] Mice were inoculated with 1 million tumor cells in the hind flank. Treatment was started on day 7 by oral lavage at 20 mg/kg/day.

recombinant QSOX1 = target: T1, recombinant QSOX1 (Homo sapiens, UniProt O00391); assay: Fluorogenic HTS assay for QSOX1 inhibitors (H2O2 detection, RNAse A substrate); assay type: biochemical; settings: library screen with recombinant QSOX1
T1 construct: made in house
T1 sequence (O00391 30-747): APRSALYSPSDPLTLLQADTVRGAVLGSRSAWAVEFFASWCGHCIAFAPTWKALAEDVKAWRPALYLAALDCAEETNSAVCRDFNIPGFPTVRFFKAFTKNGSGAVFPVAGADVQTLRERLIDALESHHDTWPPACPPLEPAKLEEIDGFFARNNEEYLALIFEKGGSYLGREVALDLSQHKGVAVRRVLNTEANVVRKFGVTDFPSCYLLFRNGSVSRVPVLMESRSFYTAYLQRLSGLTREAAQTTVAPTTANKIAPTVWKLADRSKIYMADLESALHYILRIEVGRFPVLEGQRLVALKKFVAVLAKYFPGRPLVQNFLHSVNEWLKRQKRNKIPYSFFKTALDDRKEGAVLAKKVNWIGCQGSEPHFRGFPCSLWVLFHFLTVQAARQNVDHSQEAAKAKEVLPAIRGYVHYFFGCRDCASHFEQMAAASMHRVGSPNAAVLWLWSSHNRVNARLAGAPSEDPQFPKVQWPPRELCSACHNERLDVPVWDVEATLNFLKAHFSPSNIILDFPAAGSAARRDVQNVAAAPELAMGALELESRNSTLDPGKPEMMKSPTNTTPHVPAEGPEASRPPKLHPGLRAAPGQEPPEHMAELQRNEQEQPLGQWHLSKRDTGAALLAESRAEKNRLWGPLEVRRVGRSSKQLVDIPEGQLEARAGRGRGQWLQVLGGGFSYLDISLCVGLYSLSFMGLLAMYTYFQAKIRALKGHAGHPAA
Protocol: FIG. 7. An in vitro assay to screen for QSOX1 inhibitors; Fluorogenic assay (also can be HTS). Enzymatically active recombinant QSOX1 is incubated with individual compounds in individual wells of a 384 well plate. […] Therefore, no fluorescence is observed.
In screening for inhibitors, recombinant QSOX1 was produced and tested in fluorogenic assays to make sure it was active. The recombinant enzyme then was sent to the Sanford Burnham Institute for use in the same/similar assay to screen libraries for chemical compounds that inhibit the enzymatic activity of QSOX1.
A peptide was identified in plasma from pancreatic cancer patients that mapped back to the QSOX1 parent protein (FIG. 1, prior art). […] A high throughput screening assay (HTS) was employed to screen a library of chemical compounds (50,000 compounds). The assay detects H2O2 produced by QSOX1 when it is enzymatically active (FIG. 7). Inhibition of the enzymatic activity of QSOX1 (with a chemical compound) suppresses H2O2 production, decreasing fluorescent or bioluminescent signal in the assay.

Question: `COc1cccc(C(=O)Nc2ccc(N3CCCC3)cc2)c1` [SBI-183, 3-methoxy-N-[4-(1-pyrrolidinyl)phenyl]benzamide] was tested. Which “invasion through Matrigel of MCF-10A breast cell lines (p53 overexpress and mutant p53 R248W, R273C, Y220C)” value [1] did it give?
Answer: The value was “suppresses invasion”.

Question: And the “deposition of laminin-α4 into the extracellular matrix” value (786-O)?
Answer: Its value is “not deposited; also recorded: inhibits deposition”.

Question: And the “invasion through Matrigel of MIAPaCa2 pancreatic tumor cells” value [2]?
Answer: The value was “suppresses invasion”.

Question: And the “cell viability (MTT)” value (myeloma cell lines)?
Answer: The value was “decreased viability”.

Question: And the “invasion of 786-O cells through Matrigel” value (786-O cells)?
Answer: Its value is “suppressed invasion”.

Question: And the “growth of UOK117 renal cell carcinoma xenografts” value [3]?
Answer: Its value is “suppresses the growth”.

Question: And the “inhibition of the enzymatic activity of QSOX1” value (recombinant QSOX1)?
Answer: Its value is “inhibitor”.
